In series [1] the target is T1, Aldo-keto reductase family 1 member C3 (Homo sapiens, UniProt P42330).
T1 sequence (P42330 whole entry): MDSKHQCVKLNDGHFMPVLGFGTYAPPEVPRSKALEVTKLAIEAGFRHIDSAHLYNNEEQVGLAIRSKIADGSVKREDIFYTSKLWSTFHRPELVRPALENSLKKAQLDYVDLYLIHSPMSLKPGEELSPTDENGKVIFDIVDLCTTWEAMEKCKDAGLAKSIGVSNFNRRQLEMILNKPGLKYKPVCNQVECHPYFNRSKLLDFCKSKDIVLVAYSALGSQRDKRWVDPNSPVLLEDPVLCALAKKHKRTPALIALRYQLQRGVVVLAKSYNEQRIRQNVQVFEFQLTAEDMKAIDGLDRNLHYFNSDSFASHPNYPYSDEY
Description: Drug metabolism in human recombinant […] HEK293 cells treated with 20 uM boceprevir assessed as 1 mM BNPP-mediated inhibition of AKR1C3-mediated metabolite formation after 120 mins in presence of NADPH by LC-MS/MS/FSA method. In kind it is ADME, cell-based. Also on record: interact cpd dose 1 mM. To be noted: hek293, 2 h.

In series [2] the target is T2, Aldo-keto reductase family 1 member C2 (Homo sapiens, UniProt P52895).
T2 sequence (P52895 whole entry): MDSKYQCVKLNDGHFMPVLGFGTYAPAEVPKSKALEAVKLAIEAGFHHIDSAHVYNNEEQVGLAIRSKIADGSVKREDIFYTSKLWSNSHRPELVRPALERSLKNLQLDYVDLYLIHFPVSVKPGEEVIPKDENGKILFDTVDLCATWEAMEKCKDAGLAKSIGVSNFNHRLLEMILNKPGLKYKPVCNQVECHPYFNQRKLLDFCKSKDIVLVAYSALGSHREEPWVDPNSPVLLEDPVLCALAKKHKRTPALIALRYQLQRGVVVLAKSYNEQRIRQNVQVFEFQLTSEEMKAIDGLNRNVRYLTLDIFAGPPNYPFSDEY
Description: Drug metabolism in human recombinant AKR1C2 expressing HEK293 cells treated with 20 uM boceprevir assessed as 1 mM BNPP-mediated inhibition of AKR1C2-mediated metabolite formation after 120 mins in presence of NADPH by LC-MS/MS/FSA method. The class given is ADME, cell-based. More on the design: interact cpd dose 1 mM. To be noted: hek293, 2 h.

Series [3] deals with T1, Aldo-keto reductase family 1 member C3. Description: Drug metabolism in human recombinant […] HEK293 cells treated with 20 uM boceprevir assessed as 100 uM flufenamic acid-mediated inhibition of AKR1C3-mediated metabolite formation after 120 mins in presence of NADPH by LC-MS/MS/FSA method. To be noted: hek293, 2 h. The class given is ADME, cell-based. More on the design: interact cpd dose 100 uM.

A short description of series [4]: Drug metabolism in human liver mitochondria treated with 20 uM assessed as compound formation in presence of NADPH generating system by LC-MS/MS/FSA method. In kind it is ADME.
Series [5] relates to Liver cytosol. Description: Ratio of Vmax to Km for drug metabolism in human liver cytosol assessed as (1R,2S,5S)-N-((2R,3R)-4-amino-1-cyclobutyl-3-hydroxy-4-oxobutan-2-yl)-3-((S)-2-(3-tert-butylureido)-3,3-dimethylbutanoyl)-6,6-dimethyl-3-azabicyclo[3.1.0]hexane-2-carboxamide formation per mg protein after 60 mins by LC-MS/MS/FSA method. To be noted: 1 h. The class given is ADME.

Series [6] concerns Liver cytosol. The experiment in a line: Drug metabolism in human liver cytosol assessed as (1R,2S,5S)-N-((2R,3R)-4-amino-1-cyclobutyl-3-hydroxy-4-oxobutan-2-yl)-3-((S)-2-(3-tert-butylureido)-3,3-dimethylbutanoyl)-6,6-dimethyl-3-azabicyclo[3.1.0]hexane-2-carboxamide formation after 60 mins by LC-MS/MS/FSA method. The class given is ADME, tissue-based. To be noted: 1 h.
The target of series [7] is T1, Aldo-keto reductase family 1 member C3. The experiment in a line: Activity of human recombinant AKR1C3 expressed in HEK293 cells assessed as (1R,2S,5S)-N-((2S,3R)-4-amino-1-cyclobutyl-3-hydroxy-4-oxobutan-2-yl)-3-((S)-2-(3-tert-butylureido)-3,3-dimethylbutanoyl)-6,6-dimethyl-3-azabicyclo[3.1.0]hexane-2-carboxamide formation after 120 mins in presence of NADPH by LC-MS/MS/FSA method. To be noted: hek293, 2 h. The class given is ADME, cell-based.

Series [8] can be described thus: Drug excretion in human feces. The class given is ADME. Also on record: dosed compound name [14C]boceprevir.
The nature of series [9]: Drug metabolism in human liver S9 fraction at 20 uM assessed as (1R,2S,5S)-N-((2S,3R)-4-amino-1-cyclobutyl-3-hydroxy-4-oxobutan-2-yl)-3-((S)-2-(3-tert-butylureido)-3,3-dimethylbutanoyl)-6,6-dimethyl-3-azabicyclo[3.1.0]hexane-2-carboxamide formation in presence of allopurinol by LC-MS/MS/FSA method. The class given is ADME, subcellular. To be noted: s9, 20 µM.
Series [10] can be described thus: Drug excretion in human feces assessed as oxidative metabolites level. In kind it is ADME. More on the design: dosed compound name [14C]boceprevir.
Series [11] deals with Liver cytosol. The experiment in a line: Drug metabolism in human liver cytosol at 20 uM assessed as (1R,2S,5S)-N-((2S,3R)-4-amino-1-cyclobutyl-3-hydroxy-4-oxobutan-2-yl)-3-((S)-2-(3-tert-butylureido)-3,3-dimethylbutanoyl)-6,6-dimethyl-3-azabicyclo[3.1.0]hexane-2-carboxamide formation in presence of flufenamic acid by LC-MS/MS/FSA method. In kind it is ADME.
Series [12] has as its system Liver cytosol. The experiment in a line: Drug metabolism in human liver cytosol at 20 uM assessed as (1R,2S,5S)-N-((2S,3R)-4-amino-1-cyclobutyl-3-hydroxy-4-oxobutan-2-yl)-3-((S)-2-(3-tert-butylureido)-3,3-dimethylbutanoyl)-6,6-dimethyl-3-azabicyclo[3.1.0]hexane-2-carboxamide formation in presence of BNPP by LC-MS/MS/FSA method. In kind it is ADME.
For series [13], the system named is Liver cytosol. The experiment in a line: Drug metabolism in human liver cytosol at 20 uM assessed as (1R,2S,5S)-N-((2S,3R)-4-amino-1-cyclobutyl-3-hydroxy-4-oxobutan-2-yl)-3-((S)-2-(3-tert-butylureido)-3,3-dimethylbutanoyl)-6,6-dimethyl-3-azabicyclo[3.1.0]hexane-2-carboxamide formation in presence of mefenamic acid by LC-MS/MS/FSA method. In kind it is ADME.
In series [14] the target is T1, Aldo-keto reductase family 1 member C3. Description: Activity of human recombinant AKR1C3 expressed in HEK293 cells assessed as ratio of Vmax to Km for (1R,2S,5S)-N-((2S,3R)-4-amino-1-cyclobutyl-3-hydroxy-4-oxobutan-2-yl)-3-((S)-2-(3-tert-butylureido)-3,3-dimethylbutanoyl)-6,6-dimethyl-3-azabicyclo[3.1.0]hexane-2-carboxamide formation per mg protein after 120 mins in presence of NADPH by LC-MS/MS/FSA method. The class given is ADME, cell-based. To be noted: hek293, 2 h.

The target is the same in series [15]. Description: Activity of human recombinant AKR1C3 expressed in HEK293 cells assessed as (1R,2S,5S)-N-((2S,3R)-4-amino-1-cyclobutyl-3-hydroxy-4-oxobutan-2-yl)-3-((S)-2-(3-tert-butylureido)-3,3-dimethylbutanoyl)-6,6-dimethyl-3-azabicyclo[3.1.0]hexane-2-carboxamide formation per mg protein after 120 mins in presence of NADPH by LC-MS/MS/FSA method. To be noted: hek293, 2 h. The class given is ADME, cell-based.

The test system of series [16] is Liver cytosol. The experiment in a line: Drug metabolism in human liver cytosol at 20 uM assessed as (1R,2S,5S)-N-((2S,3R)-4-amino-1-cyclobutyl-3-hydroxy-4-oxobutan-2-yl)-3-((S)-2-(3-tert-butylureido)-3,3-dimethylbutanoyl)-6,6-dimethyl-3-azabicyclo[3.1.0]hexane-2-carboxamide formation at 20 uM after 60 mins in presence of AKR inhibitor diflunisal by LC-MS/MS/FSA method. The class given is ADME. As to conditions: 1 h.

Series [17] in a line: Drug metabolism in human liver S9 fraction at 20 uM assessed as (1R,2S,5S)-N-((2S,3R)-4-amino-1-cyclobutyl-3-hydroxy-4-oxobutan-2-yl)-3-((S)-2-(3-tert-butylureido)-3,3-dimethylbutanoyl)-6,6-dimethyl-3-azabicyclo[3.1.0]hexane-2-carboxamide formation in presence of quercetin by LC-MS/MS/FSA method. As to conditions: s9, 20 µM. The class given is ADME, subcellular.

As for `CC(C)(C)NC(=O)N[C@H](C(=O)N1C[C@H]2[C@@H]([C@H]1C(=O)N[C@@H](CC1CCC1)[C@@H](O)C(N)=O)C2(C)C)C(C)(C)C`, the “inhibition (INH)” value came out at 69% in series [1], 82% in [2] and 93% in series [3]. In addition, the Compound recovery in series [4] came to 7%.
For the compound `CC(C)(C)NC(=O)N[C@H](C(=O)N1C[C@H]2[C@@H]([C@H]1C(=O)N[C@H](CC1CCC1)C(=O)C(N)=O)C2(C)C)C(C)(C)C`, the Vmax/Km in series [5] worked out at 30.9 µL/min. Further, in series [6], the Km (commonly the concentration of substrate that gives half-maximal velocity) came to 27.4 µM.
On to `CC(C)(C)NC(=O)N[C@H](C(=O)N1C[C@H]2[C@@H]([C@H]1C(=O)NC(CC1CCC1)C(=O)C(N)=O)C2(C)C)C(C)(C)C` (some centres not stated) [BOCEPREVIR], for which, in [7], the Km amounted to 43.5 µM. Also, the Radiolabel recovery in series [8] is 79%; in series [10] it was 50%. Besides, the Compound recovery entry in series [9] is recorded as “metabolite_detected”; in series [11], “metabolite_not_detected”; in series [12] it was “metabolite_not_detected”; in series [13], “metabolite_not_detected”; in [16], “metabolite_not_detected”; in series [17], “metabolite_not_detected”. Moreover, the Vmax/Km in [14] was found to be 14.67 µL/min. For the same compound, the Vmax (as a rule, the top rate of the reaction or transport when substrate is in excess) in series [15] came to 639 pmol/min.

The record behind these values is ChEMBL document CHEMBL3526141, “Characterization of human liver enzymes involved in the biotransformation of boceprevir, a hepatitis C virus protease inhibitor” (Drug Metab Dispos, 2011).
